Data published in publication PMC3510438, “The transmembrane tyrosines Y56, Y91 and Y167 play important roles in determining the affinity and transport rate of the rabbit proton-coupled peptide transporter PepT1” (The International Journal of Biochemistry & Cell Biology, 2009).
Numbering of substitutions follows the chain as printed. Values joined by “and” are separate entries in the source; they are usually repeats but may differ in a detail not shown here. Identical values can stand only once. Where a SMILES comes first, the peptide text is derived from it.

Experiments:
wild-type rPepT1 = biological target: T1, wild-type rPepT1 (Oryctolagus cuniculus, UniProt P36836); test: Competition of [3H]-D-Phe-L-Gln uptake into Xenopus oocytes, Ki by method of Deves and Boyd; type: cell-based, rabbit; conditions: against 0.4 μM [3H]-D-Phe-L-Gln uptake
T1 construct: expressed in transfected cells; host or cells: Xenopus laevis oocytes injected with cRNA
T1 sequence (P36836 1-707): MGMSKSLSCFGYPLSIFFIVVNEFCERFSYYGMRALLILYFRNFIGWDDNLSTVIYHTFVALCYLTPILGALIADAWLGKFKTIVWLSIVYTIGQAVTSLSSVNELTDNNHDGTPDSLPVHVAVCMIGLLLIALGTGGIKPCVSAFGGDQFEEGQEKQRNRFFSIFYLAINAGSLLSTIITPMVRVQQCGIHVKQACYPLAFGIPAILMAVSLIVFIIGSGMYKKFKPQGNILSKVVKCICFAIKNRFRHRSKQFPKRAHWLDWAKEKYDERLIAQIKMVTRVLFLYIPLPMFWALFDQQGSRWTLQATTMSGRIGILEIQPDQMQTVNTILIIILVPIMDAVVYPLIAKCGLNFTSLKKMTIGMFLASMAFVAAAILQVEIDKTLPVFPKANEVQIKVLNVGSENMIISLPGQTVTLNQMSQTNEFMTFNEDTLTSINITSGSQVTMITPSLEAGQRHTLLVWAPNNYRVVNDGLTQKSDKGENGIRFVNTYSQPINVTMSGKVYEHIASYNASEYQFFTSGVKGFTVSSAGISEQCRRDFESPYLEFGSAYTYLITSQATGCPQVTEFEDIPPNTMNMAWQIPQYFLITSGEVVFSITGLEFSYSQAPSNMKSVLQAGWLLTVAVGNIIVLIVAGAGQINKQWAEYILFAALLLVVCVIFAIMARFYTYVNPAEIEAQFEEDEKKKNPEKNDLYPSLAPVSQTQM
Protocol: (§1) rPepT1 constructs were linearised with XbaI (New England Biolabs, UK) and cRNA generated by in vitro transcription (T7 mMessage mMachine, Ambion, Cambridgeshire, UK). Xenopus laevis oocytes were obtained under MS222 anaesthesia (0.2%, w/v) in accordance with the UK Animals (Scientific Procedures) Act, 1986, and maintained at 18 °C in modified Barth's medium (88 mM NaCl, 1 mM KCl, 0.82 mM MgSO4, 2.4 mM NaHCO3, 0.42 mM CaCl2, 10 mM Hepes, 5 mM sodium pyruvate, 50 μg ml^−1 gentamicin (Fluka, Poole, UK), adjusted to pH 7.6 with 1 M NaOH). Transport measurements were performed at least 72 h after micro-injection of oocytes with 27nl cRNA (1 μg/μl), with medium changed daily.
Uptake of [^3H]-D-Phe-L-Gln (17.4 Ci/mmole, custom synthesised, Cambridge Research Biochemicals, Stockton-on-Tees, UK) was performed as previously described ([Meredith, 2004]). Briefly, 5 oocytes were incubated in 100 μl of uptake medium (95 mM NaCl, 2 mM KCl, 1 mM CaCl2, 0.42 mM MgCl2, 10 mM Tris/Hepes pH 7.4 or Tris/Mes pH 5.5) with tracer (0.4 μM) [^3H]-D-Phe-L-Gln. After incubation, the oocytes were washed sequentially five times in 1 ml of ice-cold 120 mM NaCl solution, lysed individually with 100 μl 2% (w/v) SDS and liquid scintillation counted. As a control non-injected oocytes were also incubated in uptake medium with D-Phe-L-Gln as above.
The affinity of wild-type and mutant rPepT1 transporters were assessed by competition studies with 0.4 μM [^3H]-D-Phe-L-Gln and Gly-L-Gln present in the uptake medium in concentrations from 0 to 2 mM using the protocol above, and the Ki calculated using the method of [Deves and Boyd (1989)].

Y91F-rPepT1 = biological target: T2, Y91F-rPepT1 (Oryctolagus cuniculus, UniProt P36836, Y91F); test: Uptake of tracer [3H]-D-Phe-L-Gln into Xenopus oocytes; type: cell-based, rabbit; conditions: corrected for surface expression; versus wild-type
T2 construct: expressed in transfected cells; host or cells: Xenopus laevis oocytes injected with cRNA
T2 sequence (P36836 1-707 Y91F): T1 sequence (P36836 1-707) with Y91F
Protocol: as §1
Uptake of [^3H]-D-Phe-L-Gln (17.4 Ci/mmole, custom synthesised, Cambridge Research Biochemicals, Stockton-on-Tees, UK) was performed as previously described ([Meredith, 2004]). […] After incubation, the oocytes were washed sequentially five times in 1 ml of ice-cold 120 mM NaCl solution, lysed individually with 100 μl 2% (w/v) SDS and liquid scintillation counted. […]
Luminometry assays were performed as described previously ([Panitsas et al., 2006]). […] Luminometer (Turner-Designs 20/20, Promega) readings for at least 15 oocytes per data point were taken immediately.

| Ki (wild-type rPepT1; pHout 5.5) | Ki (wild-type rPepT1; pHout 7.4) [µM] | decrease in the rate of transport per protein molecule (Y91F-rPepT1) [%] | Molecule |
| --- | --- | --- | --- |
| 320 µM and 330 µM | 110 ± 10 | – | NCC(=O)N[C@@H](CCC(N)=O)C(=O)O [Gly-L-Gln] (H-Gly-Gln-OH) |
| – | – | 40 | [^3H]-D-Phe-L-Gln |
